The Tmax is the time from dosing to the highest level. For orientation: half-life means the time in which the quantity being followed falls by half. Lower therefore signals rapid decline. Usually EC50 stands for the midpoint of the concentration-response curve.

The values that follow come from paper PMC4788153, “Impact of Cytochrome P450 2D6 Function on the Chiral Blood Plasma Pharmacokinetics of 3,4-Methylenedioxymethamphetamine (MDMA) and Its Phase I and II Metabolites in Humans” (PLoS ONE, 2016).

The nature of data set [1]: Chiral plasma pharmacokinetics of MDMA and its phase I and II metabolites after controlled MDMA administration. The format is in vivo, human. On the procedure:
Blood plasma samples were analyzed non-stereoselectively as reported previously and reanalyzed for the present report using liquid chromatography-mass spectrometry/mass spectrometry after chiral derivatization with Marfey’s reagent as described previously. The method was fully validated, including selectivity, recovery, matrix effects, bias and imprecision, stability, and limit of quantification.

The conditions of data set [2]: 125 mg single dose; ref [3, 61]; cited from earlier work.
The next data set deals with serotonin transporter. The note with it: four weeks after MDMA 1.5-1.7 mg/kg, MDMA-naïve volunteers; ref [123, 124]; cited from earlier work.
Data set [3] is described as follows: Chiral plasma pharmacokinetics of bupropion and hydroxybupropion. The note with it: for half-life: both, human, plasma, oral; for effect of MDMA co-administration on plasma concentrations: bupropion+MDMA vs bupropion+placebo.
The subject of data set [4] is DAT. The arrangement: method as in ref [15] (a number printed in a supplementary file, which may have a reference list of its own: not looked up in the article's list). The note with it: rat synaptosomes, without bupropion; ref [15]; read-out: EC50 of DAT-mediated amphetamine-induced DA release; cited from earlier work.
The subject of data set [5] is DAT. The note with it: cited from earlier work.
On the set-up of data set [6]: method as in ref [46] (a number printed in a supplementary file, which may have a reference list of its own: not looked up in the article's list). The note with it: ref [46]; cited from earlier work.
The mark [7] stands for this setting: bupropion vs placebo pretreatment.

SMILES strings stand for the structures. Like-named read-outs stand apart in the source and are kept apart here.

`CNC(C)Cc1ccc2c(c1)OCO2` (stereo not drawn) [MDMA, 3,4-methylenedioxymethamphetamine]: the “mean overall effect on R/S ratios” value in data set [1] (CYP2D6 inhibition by bupropion) is recorded as “less than 10%”. Further, in data set [1] (setting [7]), the “change of R/S ratio for AUC24 after bupropion pretreatment” value is on record as -9% and the “change of R/S ratio for Cmax after bupropion pretreatment” value is reported as -6%. Moreover, in data set [2], the T1/2 is on record as 9.6 h and the Tmax was 2.5 h. The “change in serotonin transporter density” value with serotonin transporter was “No changes”.

Regarding `C[C@@H](NC(C)(C)C)C(=O)c1cccc(Cl)c1` [R-bupropion, bupropion], the half-life in data set [3] (300 mg, t1/2 R/ R,R, bupropion+placebo (P), CYP2B6 genotype normal) was 8.4 h; in data set [3] (300 mg, t1/2 R/ R,R, bupropion+placebo (P), CYP2B6 genotype reduced), 8.9 h; in data set [3] (t1/2 R/ R,R, bupropion+MDMA (M), CYP2B6 genotype normal), 8.5 h; in data set [3] (t1/2 R/ R,R, bupropion+MDMA (M), CYP2B6 genotype reduced), 7.5 h. Also, the “effect of MDMA co-administration on plasma concentrations” value (“effect of MDMA co-administration” for short) in data set [3] is “did not significantly alter”.

`C[C@@H]1NC(C)(C)CO[C@@]1(O)c1cccc(Cl)c1` [S,S-hydroxybupropion, hydroxybupropion]: the “effect of MDMA co-administration” value in data set [3] is on record as “did not significantly alter”.

Take `C[C@H](NC(C)(C)C)C(=O)c1cccc(Cl)c1` [S-bupropion, bupropion]: the half-life in data set [3] (300 mg, t1/2 S/ S,S, bupropion+placebo (P), CYP2B6 genotype normal) was 7.3 h; in data set [3] (300 mg, t1/2 S/ S,S, bupropion+placebo (P), CYP2B6 genotype reduced) it was 7.8 h; in data set [3] (t1/2 S/ S,S, bupropion+MDMA (M), CYP2B6 genotype normal), 7.5 h; in data set [3] (t1/2 S/ S,S, bupropion+MDMA (M), CYP2B6 genotype reduced) it was 6.8 h. The “effect of MDMA co-administration” value in data set [3] is on record as “did not significantly alter”.

Regarding `CC(N)Cc1ccccc1` (stereo not drawn) [amphetamine], the EC50 in the data set with DAT [4] is […].

Turning to `CC(NC(C)(C)C)C(=O)c1cccc(Cl)c1` (stereo not drawn) [bupropion], in the data set with DAT [5] (150 mg twice-daily, 3 h after last dose, 11C-βCIT-FE PET, ref [16]), the “DAT occupancy in the human striatum” value is recorded as 26%. The “striatal DAT occupancy” value with DAT [5] (2.5 h after single 150 mg, 11C-raclopride PET, ref [83]) is recorded as “no significant”. The T1/2 in data set [6] was 20 h.
